This is an account of results in US12686667B2, “Methods and compositions for gamma-glutamyl cycle modulation” (CANCER RESEARCH TECHNOLOGIES LLC, priority 2013, dated 2026).

Usually LD50 stands for the dose at which mortality reaches 50%.

Data set [1] has as its system human prostate tumor cell line. The data set can be described thus: Nude mouse model inoculated with human prostate tumor cell line; racemic, L- and D-GGCI compared. The format is in vivo, nude mice. The protocol:
Relative activities of the exemplary enantiomeric GGCI compounds of this invention were compared. Conjugates of benzaldehyde, salicylaldehyde and para-methoxybenzaldehyde were prepared, using either enantiomeric L- or D-penicillamine as the second reactant. The efficacy of racemic BA-GGCI, racemic SA-GGCI and racemic PMB-GGCI in the treatment of human prostate cancer was tested using the nude mouse model as in Example 2, except that the nude mice were inoculated intravenously with a human prostate tumor cell line. One group of the inoculated mice was treated with the racemic BA-GGCI and a control group of the inoculated mice was treated with placebo, and the effects of treatment with GGCI and placebo were compared. Response to treatment was monitored by changes in [PSA].
The exemplary L- and D-enantiomer BA-GGCIs were prepared in accordance with synthetic scheme of FIG. 1 using L-penicillamine.

Another data set concerns lung CA CRL5891. Briefly: Survival of nude mice inoculated with human lung cancer. The format is in vivo, athymic nude mice. The following applies: for survival of treated group: nude male mice, 400 rads, lung CA CRL5891, 100 mg/kg I.P. every day, six days a week, followed up for 120 days, control: eight of ten died. Here is the method: In order to examine survival of athymic nude mice inoculated intravenously with tumors, one group of the inoculated mice was treated with racemic BA-GGCI, and a second group of the inoculated mice were treated with placebo, and the effects of treatment with BA-GGCI and placebo were compared.
Two subgroups of nude male mice where examined: A control group and an experimental group. The groups included twenty athymic nude mice (ten control and ten experimental) subjects, each irradiated with 400 rads of radiation and inoculated with lung CA CRL5891 at 3×10,000,000 cells per mouse. Interventional treatment was identical to the first study as above.
The subjects were followed up for 120 days. In the Control group, eight of ten subjects died. Two of the surviving mice developed a large tumor.

The subject of data set [2] is patients with advanced prostate cancer. The data set can be described thus: Compassionate use treatment of patients with advanced prostate cancer. The format is in vivo, human. The protocol: Two patients with advanced prostate cancer were treated under a compassionate use program with an exemplary GGCI
Racemic BA-GGCI was administered to two human subjects who were receiving hormonal therapy for 12 and 14 months respectively.
At the onset of the GGCI treatment, both patients were bedridden with PSA (Prostate Specific Antigen) values of 340 and 180 ng/mL respectively. Both subjects presented with multiple bone metastases, and agonizing pains. The GGCI treatment protocol comprised 600 mg of GGCI capsule 3 times/day (formulated for human based on less then 5% of the LD50 toxicity on mice).

In the next data set the test system is Human Melanoma cells 624. Briefly: Survival of nude mice inoculated with human melanoma. The format is in vivo, athymic nude mice. The following applies: for survival of treated group: nude mice, 400 rads, Human Melanoma cells 624, 100 mg/kg I.P. every day, six days a week, followed up for 120 days, control: ten out of ten died. The protocol:
In order to examine the survival rate of athymic nude mice, inoculated intravenously with tumors, one group of the inoculated mice was treated with BA-GGCI, and a second group of the inoculated mice were treated with placebo, and the effects of treatment with BA-GGCI and placebo were compared.
Two subgroups of nude mice were examined: a control group and an experimental group. The groups included a total of twenty athymic nude mice (ten control and ten experimental), each irradiated with 400 rads of radiation and inoculated with Human Melanoma cells 624 at 3.0×10,000,000 cells per mouse. Treatment of the experimental group with racemic BA-GGCI commenced at 24 hours after the inoculation. The treatment was administered intraperitoneally (I.P.) at a dose of 100 mg/kg in 2 cc of saline every day, six days a week. The control group received placebo (2 cc saline IP), every day, six days a week.
The subjects were followed up for 120 days.

In another data set the test system is Balb C Mice. The data set can be described thus: LD50 toxicity study on Balb C mice. The format is in vivo. The protocol:
LD50 data was measured, and exemplary gamma-glutamyl cycle inhibitor's toxicity study was conducted on Balb C Mice. A conjugate of L-penicillamine and methyl glyoxal (MGPA) was adminstered at about 4500 mg/kg ip, 5000 mg/kg oral. A conjugate of L-penicillamine and para-methoxyphenyl (PMPA) was administered at 5250 mg/kg ip, 5500 mg/kg oral; and a conjugate of L-penicillamine and citronellal (CNPA) was administered at 3250 mg/kg ip, 4500 mg/kg oral.

The test system of the next data set is CD1 mice. The data set can be described thus: Sub-acute (4 weeks) per os (via food) toxicity to mice. The class given is in vivo. An excerpt:
Sample: L-Thiazolidine-di-methyl-carboxylic acid: “L-BAPA” powder was mixed in the food (pellets).
Subjects were examined for: Sub-acute (4 weeks) per os (via food) toxicity of L-BAPA to mice.
Forty females and forty male CD1 mice, 8-10 weeks old, were housed 5 per cage (milipore filtered top cages), half of them used as controls, receiving normal mouse diet (prepared at the breeding center food plant). The other half were the experimental group and received same food composition in which 0.6 g L-Thiazolidine-di-methyl-carboxylic acid in kg food was mixed and pelleted in smaller pellet machine. This food contains 12% humidity, as compared with 6% humidity of the control diet. The animals were fed ad libitum. All animals were weighed weekly and food consumption was recorded. Possible clinical or pharmaceutical effects were checked daily. After 4 weeks, the mice were put into metabolic cages for 24 hours, their urine was collected, and then the animals were bled before sacrificing. The blood was analyzed and bone marrow smears were prepared for differential count.
The reason for putting […] in a group was to assure enough blood and urine for analysis, so all the blood clinical chemistry and urinalysis are of a pool of 2 mice each. All other results are individual results, performed randomly on one of each 2 mouse group.
The following organs were examined histologically: adrenals, brain, eye, gonads, heart, intestines (colon, caecum, duodenum, ileum, rectum) kidneys, liver, lungs, lymph nodes (mesenterial and inguinal) mammary gland, mediastinum, esophagus, pancreas, pituitary, salivary gland, skeletal muscle, skin, spinal cord, spleen, stomach, thyroid, urinary bladder and uterus. The organs were fixed in Bouin's solution and stained with hematoxylin-eosin-phosphomolybdic-acid light green stain. Weights for the adrenals, gonads, kidneys, liver and pituitary were recorded and the ratio organ weight/body weight was calculated.
The following lab studies were performed:
Hematology: Hemoglobin, hematocrit, erythrocyte count, leukocyte count.
Clinical chemistry: alkaline phosphatase, blood urea nitrogen, serum glutamic, pyruvic transaminase, blood sugar.
Urinalysis: appearance occult blood, protein Ph, bilirubin, ketones, glucose, nitrites, urobilinogen.

The next data set concerns B6C3F1 Mice. Briefly: LD50 determination in B6C3F1 mice. Details: 1/10 LD50: unit: mg/kg/inj. The class given is in vivo. An excerpt: Summary of LD50 Determination with a conjugate of L-penicillamine and salicylaldehyde (L-SAPA), a conjugate of L-penicillamine and benzaldehyde (L-BAPA), a conjugate of L-penicillamine and pyruvic aldehyde (L-PAPA) and a conjugate of L-penicillamine and glutaric dialdehyde (L-GAPA) in B6C3F1 Mice.

The mark [3] stands for this setting: subject #1, 600 mg capsule 3 times/day.
Setting [4] is: subject #2, 600 mg capsule 3 times/day.
Where [5] appears, read: CD1 mice, 0.6 g in kg food, 4 weeks.
[6] abbreviates: CD1 mice, 0.6 g in kg food, 4 weeks, versus control.

Bounds are passed on as bounds.

Consider `CC1(C)SC(c2ccccc2)NC1C(=O)O` (racemic) [racemic BA-GGCI], for which the “survival rate versus control group” value in data set [1] (nude mice inoculated intravenously with human prostate tumor cell line, treatment as in Example 2, response monitored by [PSA]) is “significantly higher survival rate than the control group”. Also, in the data set with lung CA CRL5891 (lung CA CRL5891 nude mice, 100 mg/kg I.P., 120 days), the “detectable tumor in treated group” value was “none with detectable tumor”. The “survival of treated group” value in the data set with lung CA CRL5891 is listed as “all mice remained alive”. Further, in data set [2] (setting [3]), the “PSA value after treatment (dropped from 340)” value is on record as 18 units, the “time to return to regular activities” value was “within a month” and the “time until pain level subsided” value was not above 10 days. Besides, in data set [2] (subject #1, 600 mg capsule 3 times/day, later), the “PSA level after continued drop” value amounted to 5 units. Moreover, the “time subject felt normal” value in data set [2] (subject #1, before they eventually passed away) came out at 28 months. Moreover, the “bone CAT scan” value in data set [2] (subject #1, multiple bone metastases at onset) was “substantial remission”. In addition, in data set [2] (subject #2), the “survival after initiation of the treatment (still alive, feeling well)” value was not below 36 months. Moreover, in data set [2] (setting [4]), the “PSA after treatment (180 ng/mL at onset)” value stood at 16 units, the “time to return to normal activities” value is 2-3 weeks and the “time until pains subsided” value was 7 days. Further, the “tumor development in treated group” value with Human Melanoma cells 624 (Human Melanoma cells 624 nude mice, 100 mg/kg I.P., after stopping the treatment) is given as “Two of the subjects developed small tumors after stopping the treatment”. The “survival of treated group” value in the data set on Human Melanoma cells 624 is on record as “ten out of ten subjects in the treated group were all alive”.
On to `COc1ccc(C2N[C@@H](C(=O)O)C(C)(C)S2)cc1` (mixture of isomers) [racemic PMB-GGCI, 2-imino-3-p-methoxybenzyl-4 sulfanyl-5 dimethyl 1-carboxylic acid], for which the “survival of treated group” value in the data set on lung CA CRL5891 and in the data set with Human Melanoma cells 624 was “results similar to those obtained with racemic BA-GGCI” each time.
`CC1(C)SC(c2ccccc2O)NC1C(=O)O` (racemic) [racemic SA-GGCI]: the “survival of treated group” value in the data set with lung CA CRL5891 and with Human Melanoma cells 624 was “results similar to those obtained with racemic BA-GGCI” throughout. Moreover, the “subjective well-being of patients” value in data set [2] (human patients, compared with BA-GGCI) was “subjectively felt better than patients to whom BA-GGCI was administered”. Moreover, the “overall treatment result in patients” value in data set [2] (human patients, compared with BA-GGCI treatment) was “results similar to those obtained with B-GGCI treatment”.
For the compound `CC(C)=CCCC(C)CC1NC(C(=O)O)C(C)(C)S1` (centres unmarked) [CNPA], the median lethal dose (LD50) in the data set with Balb C Mice (ip) is 3250 mg/kg; with Balb C Mice (oral) it was 4500 mg/kg.
`CC1(C)SC(c2ccccc2)N[C@H]1C(=O)O` (stereo partly drawn) [L-BAPA]: the “activity compared to the corresponding racemate” value in data set [1] ((L) compound versus racemic mixture) was “at least twice as active as the corresponding racemic mixture”. Moreover, the “clinical symptoms, daily observation” value with CD1 mice (CD1 mice, 0.6 g in kg food ad libitum, 4 weeks) is recorded as “no clinical or other effect could be observed”. For the same compound, in the data set on CD1 mice (setting [5]), the “Blood cell analysis and differential count” value was “All values are within the normal range and no significant difference between the control and the experimental groups is noted”; the “Bone marrow differential count” value was “All values are within the normal range and no significant difference between the control and the experimental groups is noted”. The Histopathology entry in the data set with CD1 mice (CD1 mice, 0.6 g in kg food, 4 weeks, 10 male and 10 females per group, thirty-one organs) is “No other pathological or other changes could be observed”. Moreover, the Food consumption result with CD1 mice (CD1 mice, 0.6 g in kg food, 4 weeks, experimental food 12% humidity versus 6% control) is “more L-BAPA containing experimental food was consumed by the experimental group then normal food by the control”. Further, the “Blood clinical chemistry and urinalysis” value in the data set with CD1 mice (CD1 mice, 0.6 g in kg food, 4 weeks, pool of 2 mice each) was “All values are within the normal range and no significant difference between the control and the experimental groups is noted”. In the data set with CD1 mice (setting [6]), the Body weight entry was “no significant difference between the experimental group and the control group”; the “Organ weight and ratio organ/body weight” value is “No significant difference between the experimental and the control group is noted”. Also, the “clinical or pathological changes (conclusion)” value in the data set with CD1 mice (mixed in the food (0.6 g in kg food), fed ad libitum for 4 weeks) is recorded as “does not produce any clinical or pathological changes to mice”. Moreover, in the data set on B6C3F1 Mice (Schedule Day 1, Route ip), the “1/10 LD50” value turned out to be 88.4 and the “Calculated LD50 mg/kg/inj.” value is 884 mg/kg/inj. Further, in the data set with B6C3F1 Mice (Schedule Day 1, Route oral), the “1/10 LD50” value is on record as 355 and the “Calculated LD50 mg/kg/inj.” value was 3553 mg/kg/inj. For the same compound, in the data set with B6C3F1 Mice (Schedule Day 1-5, Route ip), the “1/10 LD50” value was found to be 88.4 and the “Calculated LD50 mg/kg/inj.” value is recorded as 884 mg/kg/inj. In addition, in the data set with B6C3F1 Mice (Schedule Day 1-5, Route oral), the “1/10 LD50” value came out at 216 and the “Calculated LD50 mg/kg/inj.” value is reported as 2158 mg/kg/inj.
With `CC1(C)SC(CCCC=O)N[C@H]1C(=O)O` (stereo partly drawn) [L-GAPA], the “1/10 LD50” value amounted to 375 with B6C3F1 Mice (Schedule Day 1, Route ip); 500 in the data set with B6C3F1 Mice (Schedule Day 1, Route oral); 169 in the data set on B6C3F1 Mice (Schedule Day 1-5, Route ip); 500 in the data set with B6C3F1 Mice (Schedule Day 1-5, Route oral). For the same compound, the “Calculated LD50 mg/kg/inj.” value in the data set on B6C3F1 Mice (Schedule Day 1, Route ip) was 3749 mg/kg/inj; in the data set on B6C3F1 Mice (Schedule Day 1, Route oral) it was more than 5000 mg/kg/inj; in the data set with B6C3F1 Mice (Schedule Day 1-5, Route ip), 1690 mg/kg/inj; in the data set on B6C3F1 Mice (Schedule Day 1-5, Route oral) it was more than 5000 mg/kg/inj.
`CC(=O)C1N[C@@H](C(=O)O)C(C)(C)S1` (stereo partly drawn) [L-PAPA]: the “1/10 LD50” value with B6C3F1 Mice (Schedule Day 1, Route ip) was determined as 500; with B6C3F1 Mice (Schedule Day 1, Route oral) it was 500; in the data set with B6C3F1 Mice (Schedule Day 1-5, Route ip) it was 277; with B6C3F1 Mice (Schedule Day 1-5, Route oral) it was 500. In addition, the “Calculated LD50 mg/kg/inj.” value is more than 5000 mg/kg/inj with B6C3F1 Mice (Schedule Day 1, Route ip); more than 5000 mg/kg/inj in the data set with B6C3F1 Mice (Schedule Day 1, Route oral); 2771 mg/kg/inj with B6C3F1 Mice (Schedule Day 1-5, Route ip); more than 5000 mg/kg/inj in the data set on B6C3F1 Mice (Schedule Day 1-5, Route oral).
Turning to `CC(=O)C1NC(C(=O)O)C(C)(C)S1` (centres unmarked) [MGPA], the median lethal dose (LD50) result with Balb C Mice (ip) is “about 4500 mg/kg”; in the data set on Balb C Mice (oral), 5000 mg/kg.
